Experimental data published in ChEMBL document CHEMBL6071182, “Design, Biological Characterization, and Discovery of Novel Cyclohexenyl Derivatives as Kinesin KIF18A Inhibitors for the Treatment of Ovarian Cancer” (ACS Med Chem Lett, 2024).

Legend:
[1] = Cmax in Sprague-Dawley rat at 2 mg/kg, po and 1 mg/kg, iv; format: ADME, organism-based; conditions: in vivo
[2] = AUClast in Sprague-Dawley rat at 2 mg/kg, po and 1 mg/kg, iv; format: ADME, organism-based; conditions: in vivo
[3] = Half life in Sprague-Dawley rat at 2 mg/kg, po and 1 mg/kg, iv; format: ADME, organism-based; conditions: in vivo
[4] = Oral bioavailability in Sprague-Dawley rat at 2 mg/kg; format: ADME, organism-based; conditions: in vivo
[5] = cells; conditions: Homo sapiens, OVCAR-3, 96 h
Description: Antiproliferative activity against KIF18A siRNA sensitive human OVCAR-3 cells assessed as decrease in nuclei number measured after 4 days incubation by Hoechst 33342 DNA dye based nuclear count assay (NCA)

[6] = target: T1, Kinesin-like protein KIF18A (Homo sapiens, UniProt Q8NI77); test: Inhibition of human recombinant KIF18A (1 to 436) by ADP-Glo motor assay
T1 sequence (Q8NI77 whole entry): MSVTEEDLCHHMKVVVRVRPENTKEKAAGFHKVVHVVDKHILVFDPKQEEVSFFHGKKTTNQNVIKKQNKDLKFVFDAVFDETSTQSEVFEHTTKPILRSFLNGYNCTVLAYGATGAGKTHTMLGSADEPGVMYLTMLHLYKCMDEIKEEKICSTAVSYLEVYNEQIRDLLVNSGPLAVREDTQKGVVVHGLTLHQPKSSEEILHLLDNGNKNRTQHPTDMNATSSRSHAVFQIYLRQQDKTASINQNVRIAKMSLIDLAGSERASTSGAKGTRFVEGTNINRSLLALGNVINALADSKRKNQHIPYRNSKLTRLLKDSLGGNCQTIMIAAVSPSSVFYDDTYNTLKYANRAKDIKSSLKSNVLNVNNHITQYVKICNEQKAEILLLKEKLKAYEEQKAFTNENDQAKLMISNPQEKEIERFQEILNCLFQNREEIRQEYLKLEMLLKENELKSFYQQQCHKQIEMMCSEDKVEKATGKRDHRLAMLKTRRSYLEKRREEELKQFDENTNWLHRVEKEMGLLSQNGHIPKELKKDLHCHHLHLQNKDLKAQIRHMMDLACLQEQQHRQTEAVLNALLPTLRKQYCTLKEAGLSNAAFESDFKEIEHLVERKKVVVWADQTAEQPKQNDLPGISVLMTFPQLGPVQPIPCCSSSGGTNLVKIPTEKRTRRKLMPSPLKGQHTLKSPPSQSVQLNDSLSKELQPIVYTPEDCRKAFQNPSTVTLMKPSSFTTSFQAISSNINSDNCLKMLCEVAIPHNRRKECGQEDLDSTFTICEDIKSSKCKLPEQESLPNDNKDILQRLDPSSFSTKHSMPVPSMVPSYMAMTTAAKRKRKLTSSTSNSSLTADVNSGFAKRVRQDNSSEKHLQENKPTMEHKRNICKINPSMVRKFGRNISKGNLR

[7] = target: T2, Kinesin-like protein KIF11 (Homo sapiens, UniProt P52732); test: Inhibition of EG5 (unknown origin) assessed as luminescence measured after 135 mins by ADP-Glo motor assay
T2 sequence (P52732 whole entry): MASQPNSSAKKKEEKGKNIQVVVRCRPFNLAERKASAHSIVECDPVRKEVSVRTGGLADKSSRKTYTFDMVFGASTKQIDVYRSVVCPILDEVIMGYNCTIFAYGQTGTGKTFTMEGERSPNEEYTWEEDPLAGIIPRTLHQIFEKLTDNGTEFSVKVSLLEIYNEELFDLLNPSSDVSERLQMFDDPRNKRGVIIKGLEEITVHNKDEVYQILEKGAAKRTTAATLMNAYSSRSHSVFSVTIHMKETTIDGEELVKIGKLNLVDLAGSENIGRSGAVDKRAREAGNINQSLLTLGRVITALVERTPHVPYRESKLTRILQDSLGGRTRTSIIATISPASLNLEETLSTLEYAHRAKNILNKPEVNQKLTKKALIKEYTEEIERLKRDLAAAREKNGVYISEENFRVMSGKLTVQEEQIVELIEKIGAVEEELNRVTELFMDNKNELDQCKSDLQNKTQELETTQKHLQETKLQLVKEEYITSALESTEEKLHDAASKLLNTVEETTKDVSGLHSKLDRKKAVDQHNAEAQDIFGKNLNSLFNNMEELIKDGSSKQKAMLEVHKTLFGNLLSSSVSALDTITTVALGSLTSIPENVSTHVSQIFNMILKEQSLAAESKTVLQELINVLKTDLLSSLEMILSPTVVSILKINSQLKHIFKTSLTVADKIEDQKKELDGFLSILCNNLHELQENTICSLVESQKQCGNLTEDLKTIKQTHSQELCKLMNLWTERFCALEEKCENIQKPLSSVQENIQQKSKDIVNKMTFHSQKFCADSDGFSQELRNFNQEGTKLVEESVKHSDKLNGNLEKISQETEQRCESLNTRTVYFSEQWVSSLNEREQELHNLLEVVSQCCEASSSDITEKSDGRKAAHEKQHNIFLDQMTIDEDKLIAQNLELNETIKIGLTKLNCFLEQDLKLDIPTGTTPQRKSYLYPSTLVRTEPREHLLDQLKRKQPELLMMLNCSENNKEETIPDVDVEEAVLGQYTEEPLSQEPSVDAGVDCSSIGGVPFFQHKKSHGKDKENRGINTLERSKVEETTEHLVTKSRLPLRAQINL

[8] = tested on: NUGC-3; test: Antiproliferative activity against human NUGC-3 cells assessed as chemiluminescence measured after 4 days incubation by Celltiter Glo assay; conditions: NUGC-3, 96 h
[9] = tested on: NCI-N87; test: Antiproliferative activity against human NCI-N87 cells assessed as chemiluminescence measured after 4 days incubation by Celltiter Glo assay; conditions: NCI-N87, 96 h
[10] = tested on: BXPC-3; test: Antiproliferative activity against human BxPC-3 cells assessed as chemiluminescence measured after 4 days incubation by Celltiter Glo assay; conditions: BXPC-3, 96 h
[11] = Half life in Balb/c mouse at 30 mg/kg, po; format: ADME, organism-based; conditions: in vivo
[12] = Cmax in Balb/c mouse at 30 mg/kg, po; format: ADME, organism-based; conditions: in vivo
[13] = AUC in Balb/c mouse at 30 mg/kg, po; format: ADME, organism-based; conditions: in vivo
[14] = target: T1, Kinesin-like protein KIF18A; test: Inhibition of human recombinant KIF18A (1 to 374) assessed as luminescence measured after 70 mins by ADP-Glo motor assay

## O=C(Nc1cncc(N2CCC(F)(F)CC2)n1)c1ccc(NS(=O)(=O)CCO)cc1C1=CCC2(CC1)CC2
[1]
  Cmax: 140 ng/mL
[2]
  AUC(0-t): 322 ng·h/mL
[3]
  half-life: 1.2 h
[4]
  bioavailability: 22.9%
[5]
  EC50: 0.0165 µM

## Cc1cc(NC(=O)c2ccc(NS(=O)(=O)CCO)cc2C2=CCC3(CC2)CC3)nc(N2CC3CC3C2)n1 (configuration not stated)
[5]
  EC50: 0.743 µM

## C[C@H]1CN(c2cccc(NC(=O)c3ccc(NS(=O)(=O)CCO)cc3N3CCC4(CC3)CC4)n2)CCO1
[6]
  IC50: 0.062 µM

## Cc1cc(NC(=O)c2ccc(NS(=O)(=O)CCO)cc2C2=CCC3(CC2)CC3)nc(N2CCC(F)(F)CC2)n1
[7]
  IC50: > 30 µM
[1]
  Cmax: 158 ng/mL
[2]
  AUC(0-t): 1610 ng·h/mL
[3]
  half-life: 4.2 h
[4]
  bioavailability: 69.5%
[5]
  EC50: 0.0708 µM

## Cc1cc(NC(=O)c2ccc(NS(=O)(=O)CCO)cc2N2CCC3(CC2)CC3)nc(N2CCC(F)(F)CC2)n1 [AMG-650]
[8]
  IC50: 0.111 µM
[9]
  IC50: 7.49 µM
[10]
  IC50: 7.45 µM
[11]
  half-life: 7.98 h
[12]
  Cmax: 7040 ng/mL
[13]
  AUC: 110000 ng·h/mL
[5]
  EC50: 0.0727 µM

## Cc1cc(NC(=O)c2ccc(NS(=O)(=O)CCO)cc2C2=CCC3(CC2)CC3)cc(N2CCC(F)(F)CC2)c1
[14]
  IC50: Not Active
[5]
  EC50: 0.308 µM

## Cc1cc(NC(=O)c2ccc(NS(=O)(=O)CCO)cc2C2=CCC3(CC2)CC3)nc(N2CCCC2)n1
[5]
  EC50: 0.577 µM

## Cc1cc(NC(=O)c2ccc(NS(=O)(=O)CCO)cc2C2=CCC3(CC2)CC3)nc(C2CCC(F)(F)CC2)n1
[5]
  EC50: 0.186 µM

## Cc1cc(NC(=O)c2ccc(NS(=O)(=O)CCO)cc2C2=CCN(C)CC2)nc(N2CCC(F)(F)CC2)n1
[5]
  EC50: > 10 µM

## O=C(Nc1cccc(N2CCC(F)(F)CC2)n1)c1ccc(NS(=O)(=O)CCO)cc1C1=CCC2(CC1)CC2
[1]
  Cmax: 285 ng/mL
[2]
  AUC(0-t): 1340 ng·h/mL
[3]
  half-life: 2.2 h
[4]
  bioavailability: 40.4%
[5]
  EC50: 0.0182 µM

## O=C(Nc1cccc(N2CCC(F)(F)CC2)c1)c1ccc(NS(=O)(=O)CCO)cc1C1=CCC2(CC1)CC2
[14]
  IC50: Not Active
[5]
  EC50: 0.337 µM

## Cc1cc(NC(=O)c2ccc(NS(=O)(=O)CCO)cc2-c2cnn(C)c2)nc(N2CCC(F)(F)CC2)n1
[5]
  EC50: > 10 µM

## Cc1cc(NC(=O)c2ccc(NS(=O)(=O)CCO)cc2N2C3CCC2CC2(CC2)C3)nc(N2CCC(F)(F)CC2)n1
[5]
  EC50: 0.465 µM

## Cc1cc(NC(=O)c2ccc(NS(=O)(=O)CCO)cc2C2=CCC3(CC2)CC3)nc(N2CC(F)(F)C2)n1
[5]
  EC50: 0.138 µM

## O=C(Nc1ccnc(N2CCC(F)(F)CC2)c1F)c1ccc(NS(=O)(=O)CCO)cc1C1=CCC2(CC1)CC2
[5]
  EC50: 0.206 µM

## O=C(Nc1ccc(F)c(N2CCC(F)(F)CC2)n1)c1ccc(NS(=O)(=O)CCO)cc1C1=CCC2(CC1)CC2
[1]
  Cmax: 424 ng/mL
[2]
  AUC(0-t): 3400 ng·h/mL
[3]
  half-life: 4.7 h
[4]
  bioavailability: 67.9%
[5]
  EC50: 0.0405 µM

## O=C(Nc1ccnc(N2CCC(F)(F)CC2)c1)c1ccc(NS(=O)(=O)CCO)cc1C1=CCC2(CC1)CC2
[5]
  EC50: 1.63 µM

## Cc1cc(NC(=O)c2ccc(NS(=O)(=O)CCO)cc2NC2CCCCC2)nc(N2CCC(F)(F)CC2)n1
[5]
  EC50: > 10 µM

## Cc1cc(NC(=O)c2ccc(NS(=O)(=O)CCO)cc2N2C3CCCC2CC3)nc(N2CCC(F)(F)CC2)n1
[5]
  EC50: 0.665 µM

## Cc1cc(NC(=O)c2ccc(NS(=O)(=O)[C@H](C)CO)cc2N2CCC3(CC2)CC3)nc(N2CCC(F)(F)CC2)n1
[6]
  IC50: 0.071 µM

## Cc1cc(NC(=O)c2ccc(NS(=O)(=O)CCO)cc2C2CCC3(CC2)CC3)nc(N2CCC(F)(F)CC2)n1
[5]
  EC50: 1.36 µM

## Cc1cc(NC(=O)c2ccc(NS(=O)(=O)CCO)cc2N2CC3CC3C2)nc(N2CCC(F)(F)CC2)n1 (configuration not stated)
[5]
  EC50: 2.09 µM
